The source made the active and inactive calls. The calls are words filed in the database; no cut-off is given here.
target: T1, DNA topoisomerase 1 (Homo sapiens) (UniProt P11387); assay: The compound was tested for top1-induced DNA cleavage activity; + indicates comparable to CPT; format: functional
T1 sequence (whole entry): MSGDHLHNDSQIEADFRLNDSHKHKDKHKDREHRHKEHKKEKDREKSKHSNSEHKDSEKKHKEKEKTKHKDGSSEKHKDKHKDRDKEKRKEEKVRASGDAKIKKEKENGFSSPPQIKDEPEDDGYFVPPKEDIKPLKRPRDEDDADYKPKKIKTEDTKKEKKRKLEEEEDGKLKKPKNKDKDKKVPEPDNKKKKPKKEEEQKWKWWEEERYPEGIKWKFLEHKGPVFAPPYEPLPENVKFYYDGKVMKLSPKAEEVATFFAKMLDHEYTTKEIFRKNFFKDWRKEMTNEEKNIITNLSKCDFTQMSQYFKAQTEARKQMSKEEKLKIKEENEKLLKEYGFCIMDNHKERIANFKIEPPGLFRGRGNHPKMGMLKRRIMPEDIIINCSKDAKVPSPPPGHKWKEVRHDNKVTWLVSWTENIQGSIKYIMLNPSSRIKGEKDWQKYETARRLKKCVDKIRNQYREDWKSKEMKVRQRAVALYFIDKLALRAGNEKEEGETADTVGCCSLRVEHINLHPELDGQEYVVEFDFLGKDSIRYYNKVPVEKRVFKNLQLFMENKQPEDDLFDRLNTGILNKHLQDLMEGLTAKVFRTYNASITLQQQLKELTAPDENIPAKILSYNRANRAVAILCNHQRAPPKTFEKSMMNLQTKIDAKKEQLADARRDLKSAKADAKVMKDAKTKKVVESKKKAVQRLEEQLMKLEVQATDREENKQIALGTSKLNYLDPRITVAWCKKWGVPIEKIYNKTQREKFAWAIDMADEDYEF

**Q.** With `CC[C@@]1(O)C(=O)OCc2c1cc1n(c2=O)Cc2c-1nc1cnc(CN)cc1c2C` as the compound, how does the inhibition read?
**A.** Its inhibition is “comparable to CPT”.

target: T1, DNA topoisomerase 1 (Homo sapiens); assay: The compound was tested for top1-induced DNA cleavage activity; - indicates inactive; format: functional

**Q.** With `CC[C@@]1(O)C(=O)OCc2c1cc1n(c2=O)Cc2cc3cc(OC)c(OC)cc3nc2-1` (stereo in doubt; form 1) as the compound, how does the inhibition read?
**A.** Its inhibition is “inactive”.

**Q.** For `CC[C@@]1(O)C(=O)OCc2c1cc1n(c2=O)Cc2cc3cc(OC)c(OC)cc3nc2-1` (stereo in doubt; form 2), which inhibition is on record?
**A.** Its inhibition is “inactive”.

**Q.** Which inhibition does the source give for `CC[C@H]1C(=O)OCc2c1cc1n(c2=O)Cc2cc3ccccc3nc2-1` here?
**A.** The inhibition was “inactive”.

**Q.** How did the inhibition turn out when `CC[C@]1(O)C(=O)OCc2c1cc1n(c2=O)Cc2cc3ccccc3nc2-1` was run?
**A.** The inhibition was “inactive”.

**Q.** Which inhibition does the source give for `CC[C@@]1(O)C(=O)OCc2c1ccc1c2Cc2cc3ccccc3nc2-1` here?
**A.** The inhibition was “inactive”.

**Q.** With `CC[C@@]1(O)C(=O)OCc2cc3c(cc21)-c1nc2ccccc2cc1C3` as the compound, how does the inhibition read?
**A.** The inhibition was “inactive”.

**Q.** `CC[C@@]1(O)C(=O)OCc2c1cc1n(c2=O)Cc2cc3cc(OC)c(OC)cc3nc2-1` (stereo in doubt; form 3) was tested. Which inhibition did it give?
**A.** Its inhibition is “inactive”.

target: T1, DNA topoisomerase 1 (Homo sapiens); assay: The compound was tested for top1-induced DNA cleavage activity; ++ indicates more potent than CPT; format: functional

**Q.** Which inhibition does the source give for `CC[C@@]1(O)C(=O)OCc2c1cc1n(c2=O)Cc2cc3cc(N)c(O)cc3nc2-1` here?
**A.** The inhibition was “more potent than CPT”.

**Q.** How did the inhibition turn out when `CC[C@@]1(O)C(=O)OCc2c1cc1n(c2=O)Cc2c-1nc1cc3c(cc1c2CN1CCN(C)CC1)OCO3` was run?
**A.** Its inhibition is “more potent than CPT”.

**Q.** With `CC[C@@]1(O)C(=O)OCc2c1cc1n(c2=O)Cc2c-1nc1cc3c(cc1c2CN1CCN(C)CC1)OCCO3` as the compound, how does the inhibition read?
**A.** The inhibition was “more potent than CPT”.

— ChEMBL document CHEMBL1131254, “Molecular modeling studies of the DNA-topoisomerase I ternary cleavable complex with camptothecin” (J Med Chem, 1998)
